Ratio and Drug uptake data for 1 compound are collected here from ChEMBL document CHEMBL4270485, “Determination of Gymnemic Acid I as a Protein Biosynthesis Inhibitor Using Chemical Proteomics” (J Nat Prod, 2017).

For data set [1], the target named is T1, 80S Ribosome (Homo sapiens) (UniProt P08865+P42677+P62753+P15880+P23396+P61247+P62701+P22090+P46782+P62081+P62241+P46781+P46783+P62280+P25398+P62277+P62263+P62841+P62244+P62249+P08708+P62269+P39019+P60866+P63220+P62266+P62847+P62851+P62854+P62979+P62857+P62273+P62861+P39023+P36578+P46777+Q02878+P18124+P62424+P62917+P32969+P27635+P62906+P62913+P30050+P26373+P40429+P50914+P61313+P18621+Q07020+Q02543+P84098+P46778+P35268+P62829+P62750+P83731+P61254+P61353+P46776+P46779+P47914+P62888+P62899+P62910+P49207+P42766+P18077+Q9Y3U8+P83881+P61927+P61513+P63173+P62891+P62945+P05388+P05386). The experiment in a line: Binding affinity to 40S ribosomal protein S4 in human Hela cells lysates assessed as protein enrichment by measuring normalized heavy/light ratio at by nano-LC-ESIMS/MS analysis. The class given is cell-free.

Data set [2] addresses Heat shock protein HSP 90-beta (Homo sapiens) (UniProt P08238). The experiment in a line: Binding affinity to heat shock protein 90-beta in human Hela cells lysates assessed as protein enrichment by measuring normalized heavy/light ratio at by nano-LC-ESIMS/MS analysis. The class given is cell-free.
Data set [3] deals with T1, 80S Ribosome (Homo sapiens). The experiment in a line: Binding affinity to 40S ribosomal protein S18 in human Hela cells lysates assessed as protein enrichment by measuring normalized heavy/light ratio at by nano-LC-ESIMS/MS analysis. The class given is cell-free.
Data set [4] deals with Elongation factor 2 (Homo sapiens) (UniProt P13639). Briefly: Binding affinity to elongation factor 2 in human Hela cells lysates assessed as protein enrichment by measuring normalized heavy/light ratio at by nano-LC-ESIMS/MS analysis. It is filed as cell-free.
Data set [5] in a line: Drug internalization in human HeLa cells at 1 uM by RP-HPLC-MS analysis. It is filed as ADME, cell-based.
Data set [6] addresses Alpha-enolase (Homo sapiens) (UniProt P06733). Briefly: Binding affinity to alpha-enolase in human Hela cells lysates assessed as protein enrichment by measuring normalized heavy/light ratio at by nano-LC-ESIMS/MS analysis. The class given is cell-free.
Data set [7] has as its target Tubulin beta-5 chain (Homo sapiens) (UniProt P07437). Briefly: Binding affinity to tubulin beta chain in human Hela cells lysates assessed as protein enrichment by measuring normalized heavy/light ratio at by nano-LC-ESIMS/MS analysis. It is filed as cell-free.
Data set [8] addresses T1, 80S Ribosome (Homo sapiens). Briefly: Binding affinity to 40S ribosomal protein S14 in human Hela cells lysates assessed as protein enrichment by measuring normalized heavy/light ratio at by nano-LC-ESIMS/MS analysis. The class given is cell-free.
Data set [9] deals with 60 kDa heat shock protein, mitochondrial (Homo sapiens) (UniProt P10809). Briefly: Binding affinity to 60 kDa heat shock protein in human Hela cells lysates assessed as protein enrichment by measuring normalized heavy/light ratio at by nano-LC-ESIMS/MS analysis. It is filed as cell-free.
Sequence of 60 kDa heat shock protein, mitochondrial (Homo sapiens) (P10809 whole entry): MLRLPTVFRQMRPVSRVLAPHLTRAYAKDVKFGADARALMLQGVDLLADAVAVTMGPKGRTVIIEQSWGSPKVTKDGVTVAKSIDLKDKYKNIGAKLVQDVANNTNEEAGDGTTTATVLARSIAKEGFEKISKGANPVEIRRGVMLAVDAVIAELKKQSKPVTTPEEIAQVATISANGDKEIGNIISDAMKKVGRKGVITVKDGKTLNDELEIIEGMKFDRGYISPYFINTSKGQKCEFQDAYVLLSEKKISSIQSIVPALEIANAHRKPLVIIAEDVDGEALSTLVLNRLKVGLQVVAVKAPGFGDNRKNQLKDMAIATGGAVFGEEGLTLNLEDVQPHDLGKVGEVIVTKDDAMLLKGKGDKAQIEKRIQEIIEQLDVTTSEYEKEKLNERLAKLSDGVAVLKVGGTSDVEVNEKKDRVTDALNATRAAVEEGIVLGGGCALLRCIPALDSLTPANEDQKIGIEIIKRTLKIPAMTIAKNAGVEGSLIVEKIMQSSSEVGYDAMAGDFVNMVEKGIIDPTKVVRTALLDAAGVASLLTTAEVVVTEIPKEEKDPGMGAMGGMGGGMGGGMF
The target of data set [10] is T1, 80S Ribosome (Homo sapiens). Briefly: Binding affinity to 40S ribosomal protein S7 in human Hela cells lysates assessed as protein enrichment by measuring normalized heavy/light ratio at by nano-LC-ESIMS/MS analysis. It is filed as cell-free.
A further data set deals with Trypsin (Homo sapiens) (UniProt P07477+P07478+P35030). Briefly: Binding affinity to trypsin in human Hela cells lysates assessed as protein enrichment by measuring normalized heavy/light ratio at by nano-LC-ESIMS/MS analysis. It is filed as cell-free.
In data set [11] the target is T1, 80S Ribosome (Homo sapiens). The experiment in a line: Binding affinity to 40S ribosomal protein S26 in human Hela cells lysates assessed as protein enrichment by measuring normalized heavy/light ratio at by nano-LC-ESIMS/MS analysis. It is filed as cell-free.
For another data set, the target named is Vimentin (Homo sapiens) (UniProt P08670). The experiment in a line: Binding affinity to vimentin in human Hela cells lysates assessed as protein enrichment by measuring normalized heavy/light ratio at by nano-LC-ESIMS/MS analysis. The class given is cell-free.
Sequence of Vimentin (Homo sapiens) (P08670 whole entry): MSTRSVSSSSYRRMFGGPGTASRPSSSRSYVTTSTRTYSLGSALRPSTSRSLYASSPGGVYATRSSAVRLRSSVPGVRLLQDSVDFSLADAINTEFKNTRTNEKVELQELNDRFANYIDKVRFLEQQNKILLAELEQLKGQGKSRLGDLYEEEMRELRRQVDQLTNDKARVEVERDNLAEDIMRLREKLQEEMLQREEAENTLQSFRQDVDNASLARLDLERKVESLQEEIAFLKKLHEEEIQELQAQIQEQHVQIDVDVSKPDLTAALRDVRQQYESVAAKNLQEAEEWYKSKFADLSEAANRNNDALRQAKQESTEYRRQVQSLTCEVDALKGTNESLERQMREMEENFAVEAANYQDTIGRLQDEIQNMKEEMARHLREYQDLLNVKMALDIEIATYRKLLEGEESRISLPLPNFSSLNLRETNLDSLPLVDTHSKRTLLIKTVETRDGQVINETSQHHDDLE
Data set [12] deals with Peptidyl-prolyl cis-trans isomerase A (Homo sapiens) (UniProt P62937). The experiment in a line: Binding affinity to peptidyl-prolylcis-trans isomerase in human Hela cells lysates assessed as protein enrichment by measuring normalized heavy/light ratio at by nano-LC-ESIMS/MS analysis. The class given is cell-free.
Sequence of Peptidyl-prolyl cis-trans isomerase A (Homo sapiens) (P62937 whole entry, looked up): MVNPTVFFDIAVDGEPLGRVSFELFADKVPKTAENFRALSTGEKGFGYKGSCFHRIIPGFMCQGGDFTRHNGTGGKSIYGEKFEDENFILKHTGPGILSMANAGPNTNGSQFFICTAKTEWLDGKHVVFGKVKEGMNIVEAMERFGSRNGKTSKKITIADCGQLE
Data set [13] deals with Programmed cell death protein 6 (Homo sapiens) (UniProt O75340). The experiment in a line: Binding affinity to programmed cell death protein 6 in human Hela cells lysates assessed as protein enrichment by measuring normalized heavy/light ratio at by nano-LC-ESIMS/MS analysis. It is filed as cell-free.
Sequence of Programmed cell death protein 6 (Homo sapiens) (O75340 whole entry): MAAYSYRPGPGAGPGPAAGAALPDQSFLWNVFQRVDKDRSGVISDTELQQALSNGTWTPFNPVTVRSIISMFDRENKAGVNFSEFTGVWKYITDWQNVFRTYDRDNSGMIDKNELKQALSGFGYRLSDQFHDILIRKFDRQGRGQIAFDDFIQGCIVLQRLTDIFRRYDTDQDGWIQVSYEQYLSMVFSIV
For data set [14], the target named is Small ribosomal subunit protein eS27 (Homo sapiens) (UniProt P42677). The experiment in a line: Binding affinity to 40S ribosomal protein S27 in human Hela cells lysates assessed as protein enrichment by measuring normalized heavy/light ratio at by nano-LC-ESIMS/MS analysis. It is filed as cell-free.
The target in data set [15] is T1, 80S Ribosome (Homo sapiens). The experiment in a line: Binding affinity to 60S acidic ribosomal protein P1 in human Hela cells lysates assessed as protein enrichment by measuring normalized heavy/light ratio at by nano-LC-ESIMS/MS analysis. The class given is cell-free.
Data set [16] has the same target. Briefly: Binding affinity to 60S ribosomal protein L38 in human Hela cells lysates assessed as protein enrichment by measuring normalized heavy/light ratio at by nano-LC-ESIMS/MS analysis. It is filed as cell-free.
The target is the same in data set [17]. The experiment in a line: Binding affinity to 40S ribosomal protein S24 in human Hela cells lysates assessed as protein enrichment by measuring normalized heavy/light ratio at by nano-LC-ESIMS/MS analysis. The class given is cell-free.
For data set [18], the target named is Alkyldihydroxyacetonephosphate synthase, peroxisomal (Homo sapiens) (UniProt O00116). The experiment in a line: Binding affinity to alkyldihydroxyacetone phosphate synthase in human Hela cells lysates assessed as protein enrichment by measuring normalized heavy/light ratio at by nano-LC-ESIMS/MS analysis. It is filed as cell-free.
Sequence of Alkyldihydroxyacetonephosphate synthase, peroxisomal (Homo sapiens) (O00116 whole entry): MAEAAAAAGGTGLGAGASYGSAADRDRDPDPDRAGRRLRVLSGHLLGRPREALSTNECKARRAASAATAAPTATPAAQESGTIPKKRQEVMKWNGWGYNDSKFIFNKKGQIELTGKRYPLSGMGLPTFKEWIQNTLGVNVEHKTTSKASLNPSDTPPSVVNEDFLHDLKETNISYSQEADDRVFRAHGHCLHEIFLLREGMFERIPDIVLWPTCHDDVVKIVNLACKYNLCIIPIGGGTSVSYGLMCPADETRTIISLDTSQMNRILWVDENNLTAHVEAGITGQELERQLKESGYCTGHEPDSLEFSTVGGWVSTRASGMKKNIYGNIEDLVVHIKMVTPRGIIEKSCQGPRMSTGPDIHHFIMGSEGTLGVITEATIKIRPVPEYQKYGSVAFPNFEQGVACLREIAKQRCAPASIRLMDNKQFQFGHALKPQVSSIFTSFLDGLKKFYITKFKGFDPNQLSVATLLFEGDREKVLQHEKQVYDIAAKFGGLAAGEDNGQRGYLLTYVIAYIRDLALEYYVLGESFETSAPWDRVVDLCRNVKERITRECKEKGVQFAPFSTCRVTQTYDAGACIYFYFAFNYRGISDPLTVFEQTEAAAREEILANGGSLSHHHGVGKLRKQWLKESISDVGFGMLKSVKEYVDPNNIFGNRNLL

Sequence of Heat shock protein HSP 90-beta (Homo sapiens) (P08238 whole entry): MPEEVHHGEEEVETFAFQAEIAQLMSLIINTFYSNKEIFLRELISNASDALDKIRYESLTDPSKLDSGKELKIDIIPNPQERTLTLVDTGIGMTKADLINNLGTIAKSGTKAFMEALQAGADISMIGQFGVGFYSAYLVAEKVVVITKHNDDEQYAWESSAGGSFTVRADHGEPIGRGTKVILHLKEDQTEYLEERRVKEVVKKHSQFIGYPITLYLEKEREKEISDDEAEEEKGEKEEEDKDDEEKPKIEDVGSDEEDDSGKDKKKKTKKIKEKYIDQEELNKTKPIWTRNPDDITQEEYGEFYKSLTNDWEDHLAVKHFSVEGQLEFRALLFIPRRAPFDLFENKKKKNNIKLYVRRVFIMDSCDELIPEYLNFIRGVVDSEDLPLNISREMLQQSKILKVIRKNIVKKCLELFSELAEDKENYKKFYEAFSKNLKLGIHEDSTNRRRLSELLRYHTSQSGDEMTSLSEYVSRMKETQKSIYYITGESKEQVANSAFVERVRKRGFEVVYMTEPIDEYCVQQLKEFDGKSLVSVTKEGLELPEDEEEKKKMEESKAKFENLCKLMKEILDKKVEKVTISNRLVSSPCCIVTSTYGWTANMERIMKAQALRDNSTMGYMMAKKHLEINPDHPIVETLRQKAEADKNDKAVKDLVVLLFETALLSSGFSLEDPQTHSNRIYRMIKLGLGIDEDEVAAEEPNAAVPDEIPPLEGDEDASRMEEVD
Sequence of Tubulin beta-5 chain (Homo sapiens) (P07437 whole entry): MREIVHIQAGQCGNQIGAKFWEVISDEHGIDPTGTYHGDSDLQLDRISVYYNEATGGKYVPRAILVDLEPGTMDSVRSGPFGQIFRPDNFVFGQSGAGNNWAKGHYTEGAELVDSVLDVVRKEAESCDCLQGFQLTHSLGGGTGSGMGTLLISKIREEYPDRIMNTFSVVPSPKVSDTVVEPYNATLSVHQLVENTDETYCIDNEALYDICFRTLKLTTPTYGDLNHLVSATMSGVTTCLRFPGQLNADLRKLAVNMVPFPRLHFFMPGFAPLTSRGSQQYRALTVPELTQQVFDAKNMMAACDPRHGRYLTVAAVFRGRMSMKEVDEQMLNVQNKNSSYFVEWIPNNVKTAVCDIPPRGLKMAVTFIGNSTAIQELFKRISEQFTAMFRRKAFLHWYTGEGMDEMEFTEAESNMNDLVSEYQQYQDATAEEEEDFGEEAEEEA
Sequence of Alpha-enolase (Homo sapiens) (P06733 whole entry): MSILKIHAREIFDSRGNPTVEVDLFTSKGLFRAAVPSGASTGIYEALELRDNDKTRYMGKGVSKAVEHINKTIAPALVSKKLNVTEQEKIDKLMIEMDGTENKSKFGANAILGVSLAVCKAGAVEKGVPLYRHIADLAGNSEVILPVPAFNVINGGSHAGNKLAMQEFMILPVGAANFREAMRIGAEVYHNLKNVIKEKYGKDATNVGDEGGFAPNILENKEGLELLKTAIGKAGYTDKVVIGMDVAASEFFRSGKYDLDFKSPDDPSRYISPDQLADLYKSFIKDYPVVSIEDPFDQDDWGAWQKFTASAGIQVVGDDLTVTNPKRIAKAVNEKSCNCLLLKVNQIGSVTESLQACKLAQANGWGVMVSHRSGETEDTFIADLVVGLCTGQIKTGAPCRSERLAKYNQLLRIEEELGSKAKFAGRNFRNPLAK

With `C/C=C(\C)C(=O)O[C@H]1[C@H](O)[C@]2(COC(C)=O)[C@@H](O)C[C@]3(C)C(=CC[C@@H]4[C@@]5(C)CC[C@H](O[C@@H]6O[C@H](C(=O)O)[C@@H](O)[C@H](O)[C@H]6O)[C@@](C)(CO)[C@@H]5CC[C@]43C)[C@@H]2CC1(C)C`, the Ratio in [1] was found to be 0.16; in data set [2] it was 0.737; in data set [3] it was 0.448; in data set [4], 0.688; in data set [6] it was 0.811; in data set [7], 0.52. Further, the Ratio in data set [8] was 0.405; in [9], 0.57; in data set [10], 0.119; on Trypsin (Homo sapiens), 1; in data set [11] it was 0.158; on Vimentin (Homo sapiens), 0.817. Further, the Ratio stood at 1.21 in data set [12]; 0.68 in data set [13]; 0.418 in data set [14]; 0.27 in data set [15]; 0.33 in [16]; 0.173 in data set [17]. For the same compound, the Ratio in data set [18] came out at 0.955. The Drug uptake in data set [5] came out at 4%.
